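Each compound was tested at five concentrations against cells in 96-well plates for 48 hours. TGI marks complete inhibition of growth.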
Columns and labels:
Experiment in all cases: inhibition of tumour cell growth, NCI panel, 48 h
786-0 renal = test system: 786-0 renal
A498 renal = test system: A498 renal
A549 NSCLC = test system: A549 NSCLC
ACHN renal = test system: ACHN renal
BT-549 breast = test system: BT-549 breast
CAKI-1 renal = test system: CAKI-1 renal
COLO 205 colon = test system: COLO 205 colon
DU-145 prostate = test system: DU-145 prostate
EKVX NSCLC = test system: EKVX NSCLC
HCC-2998 colon = test system: HCC-2998 colon
HCT-116 colon = test system: HCT-116 colon
HCT-15 colon = test system: HCT-15 colon
HL-60(TB) leukemia = test system: HL-60(TB) leukemia
HOP-62 NSCLC = test system: HOP-62 NSCLC
HS 578T breast = test system: HS 578T breast
HT29 colon = test system: HT29 colon
IGROV1 ovarian = test system: IGROV1 ovarian
K-562 leukemia = test system: K-562 leukemia
KM12 colon = test system: KM12 colon
LOX IMVI melanoma = test system: LOX IMVI melanoma
M14 melanoma = test system: M14 melanoma
MALME-3M melanoma = test system: MALME-3M melanoma
MCF7 breast = test system: MCF7 breast
MDA-MB-231 breast = test system: MDA-MB-231 breast
MDA-MB-435 = test system: MDA-MB-435
MDA-N = test system: MDA-N
MOLT-4 leukemia = test system: MOLT-4 leukemia
NCI-H226 lung = test system: NCI-H226 lung
NCI-H23 lung = test system: NCI-H23 lung
NCI-H460 lung = test system: NCI-H460 lung
NCI-H522 lung = test system: NCI-H522 lung
NCI/ADR-RES ovarian = test system: NCI/ADR-RES ovarian
OVCAR-3 ovarian = test system: OVCAR-3 ovarian
OVCAR-4 ovarian = test system: OVCAR-4 ovarian
OVCAR-5 ovarian = test system: OVCAR-5 ovarian
OVCAR-8 ovarian = test system: OVCAR-8 ovarian
PC-3 prostate = test system: PC-3 prostate
RPMI-8226 leukemia = test system: RPMI-8226 leukemia
RXF 393 renal = test system: RXF 393 renal
SF-268 CNS = test system: SF-268 CNS
SF-295 CNS = test system: SF-295 CNS
SK-MEL-2 melanoma = test system: SK-MEL-2 melanoma
SK-MEL-28 melanoma = test system: SK-MEL-28 melanoma
SK-MEL-5 melanoma = test system: SK-MEL-5 melanoma
SK-OV-3 ovarian = test system: SK-OV-3 ovarian
SN12C renal = test system: SN12C renal
SNB-19 CNS = test system: SNB-19 CNS
SNB-75 CNS = test system: SNB-75 CNS
SR leukemia = test system: SR leukemia
SW-620 colon = test system: SW-620 colon
T-47D breast = test system: T-47D breast
U251 CNS = test system: U251 CNS
UACC-62 melanoma = test system: UACC-62 melanoma
UO-31 renal = test system: UO-31 renal
CCRF-CEM leukemia = test system: CCRF-CEM leukemia
HOP-92 NSCLC = test system: HOP-92 NSCLC
SF-539 CNS = test system: SF-539 CNS
TK-10 renal = test system: TK-10 renal
UACC-257 melanoma = test system: UACC-257 melanoma

In the case of `N#CCCN(CCCCN(CCC#N)C(=O)Nc1ccccc1)C(=O)Nc1ccccc1`, the TGI (786-0 renal) is reported as > 100 µM, the TGI (A498 renal) is reported as > 100 µM and the TGI (A549 NSCLC) is reported as > 100 µM. The TGI (ACHN renal) was > 100 µM, the TGI (BT-549 breast) was > 100 µM and the TGI (CAKI-1 renal) was > 100 µM. For the same compound, the TGI (COLO 205 colon) was > 100 µM, the TGI (DU-145 prostate) was > 100 µM and the TGI (EKVX NSCLC) was > 100 µM. For the same compound, the TGI (HCC-2998 colon) was > 100 µM, the TGI (HCT-116 colon) was > 100 µM and the TGI (HCT-15 colon) was > 100 µM. For the same compound, the TGI (HL-60(TB) leukemia) was > 100 µM, the TGI (HOP-62 NSCLC) was > 100 µM and the TGI (HS 578T breast) was > 100 µM. For the same compound, the TGI (HT29 colon) was > 100 µM, the TGI (IGROV1 ovarian) was > 100 µM and the TGI (K-562 leukemia) was > 100 µM. For the same compound, the TGI (KM12 colon) was > 100 µM, the TGI (LOX IMVI melanoma) was > 100 µM and the TGI (M14 melanoma) was > 100 µM. For the same compound, the TGI (MALME-3M melanoma) was > 100 µM, the TGI (MCF7 breast) was > 100 µM and the TGI (MDA-MB-231 breast) was > 100 µM. For the same compound, the TGI (MDA-MB-435) was > 100 µM, the TGI (MDA-N) was > 100 µM and the TGI (MOLT-4 leukemia) was > 100 µM. For the same compound, the TGI (NCI-H226 lung) was > 100 µM, the TGI (NCI-H23 lung) was > 100 µM and the TGI (NCI-H460 lung) was > 100 µM. For the same compound, the TGI (NCI-H522 lung) was > 100 µM, the TGI (NCI/ADR-RES ovarian) was > 100 µM and the TGI (OVCAR-3 ovarian) was > 100 µM. The TGI (OVCAR-4 ovarian) was > 100 µM, the TGI (OVCAR-5 ovarian) was > 100 µM and the TGI (OVCAR-8 ovarian) was > 100 µM. The TGI (PC-3 prostate) was > 100 µM, the TGI (RPMI-8226 leukemia) was > 100 µM and the TGI (RXF 393 renal) was > 100 µM. For the same compound, the TGI (SF-268 CNS) was > 100 µM, the TGI (SF-295 CNS) was > 100 µM and the TGI (SK-MEL-2 melanoma) was > 100 µM. The TGI (SK-MEL-28 melanoma) was > 100 µM, the TGI (SK-MEL-5 melanoma) was > 100 µM and the TGI (SK-OV-3 ovarian) was > 100 µM. For the same compound, the TGI (SN12C renal) was > 100 µM, the TGI (SNB-19 CNS) was > 100 µM and the TGI (SNB-75 CNS) was > 100 µM. For the same compound, the TGI (SR leukemia) was > 100 µM, the TGI (SW-620 colon) was > 100 µM and the TGI (T-47D breast) was > 100 µM. For the same compound, the TGI (U251 CNS) was > 100 µM, the TGI (UACC-62 melanoma) was > 100 µM and the TGI (UO-31 renal) was > 100 µM.
`Oc1c(C(Nc2ccccn2)c2ccccc2)ccc2cccnc12` (configuration not stated) was tested, and the TGI (786-0 renal) was > 37.2 µM, the TGI (A498 renal) was 54.8 µM and the TGI (A549 NSCLC) was > 100 µM. The TGI (ACHN renal) was 29.1 µM, the TGI (BT-549 breast) was > 93.4 µM and the TGI (CAKI-1 renal) was > 87.4 µM. For the same compound, the TGI (CCRF-CEM leukemia) was 3.81 µM, the TGI (COLO 205 colon) was 65.9 µM and the TGI (DU-145 prostate) was > 100 µM. For the same compound, the TGI (EKVX NSCLC) was 28.6 µM, the TGI (HCC-2998 colon) was > 100 µM and the TGI (HCT-116 colon) was 21.3 µM. For the same compound, the TGI (HCT-15 colon) was > 100 µM, the TGI (HL-60(TB) leukemia) was 6.17 µM and the TGI (HOP-62 NSCLC) was > 68.3 µM. For the same compound, the TGI (HOP-92 NSCLC) was 9.97 µM, the TGI (HS 578T breast) was > 87.9 µM and the TGI (HT29 colon) was > 86.5 µM. For the same compound, the TGI (IGROV1 ovarian) was 16.3 µM, the TGI (K-562 leukemia) was 24.9 µM and the TGI (KM12 colon) was > 100 µM. The TGI (LOX IMVI melanoma) was 37.9 µM, the TGI (M14 melanoma) was > 52.6 µM and the TGI (MALME-3M melanoma) was 22 µM. For the same compound, the TGI (MCF7 breast) was > 100 µM, the TGI (MDA-MB-231 breast) was 16.4 µM and the TGI (MDA-MB-435) was > 100 µM. The TGI (MDA-N) was > 100 µM, the TGI (MOLT-4 leukemia) was > 25.4 µM and the TGI (NCI-H226 lung) was 7.54 µM. The TGI (NCI-H23 lung) was > 77 µM, the TGI (NCI-H522 lung) was 11.8 µM and the TGI (NCI/ADR-RES ovarian) was 8.73 µM. For the same compound, the TGI (OVCAR-3 ovarian) was 12.4 µM, the TGI (OVCAR-4 ovarian) was 31.9 µM and the TGI (OVCAR-5 ovarian) was > 100 µM. It also gave a TGI (OVCAR-8 ovarian) of 23.7 µM, a TGI (PC-3 prostate) of 30.3 µM and a TGI (RPMI-8226 leukemia) of 29.3 µM. The TGI (RXF 393 renal) was 40.1 µM, the TGI (SF-268 CNS) was 25.3 µM and the TGI (SF-295 CNS) was > 30.3 µM. The TGI (SF-539 CNS) was 9.68 µM, the TGI (SK-MEL-2 melanoma) was > 28.4 µM and the TGI (SK-MEL-28 melanoma) was > 100 µM. For the same compound, the TGI (SK-MEL-5 melanoma) was 15.5 µM, the TGI (SK-OV-3 ovarian) was 63.8 µM and the TGI (SN12C renal) was 17.4 µM. For the same compound, the TGI (SNB-19 CNS) was > 100 µM, the TGI (SNB-75 CNS) was > 60.9 µM and the TGI (SR leukemia) was > 22.6 µM. For the same compound, the TGI (SW-620 colon) was > 100 µM, the TGI (T-47D breast) was > 31.6 µM and the TGI (TK-10 renal) was > 25.9 µM. The TGI (U251 CNS) was 12.3 µM, the TGI (UACC-257 melanoma) was > 100 µM and the TGI (UACC-62 melanoma) was 22.2 µM. The TGI (UO-31 renal) was 41.4 µM.
